Data taken from PubChem BioAssay (NCI).
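Briefly, cells in 96-well plates were exposed to five compound concentrations for 48 h, and endpoints were estimated by linear interpolation. The concentration for 50% growth inhibition is given as GI50. At the TGI there is no net growth.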

Key:
Test in all cases: NCI-60 cell line screen, 48 h
HT29 colon = test system: HT29 colon
LOX IMVI melanoma = test system: LOX IMVI melanoma
CCRF-CEM leukemia = test system: CCRF-CEM leukemia
MALME-3M melanoma = test system: MALME-3M melanoma
RXF 393 renal = test system: RXF 393 renal
SN12C renal = test system: SN12C renal
HCT-116 colon = test system: HCT-116 colon
NCI-H522 lung = test system: NCI-H522 lung
OVCAR-8 ovarian = test system: OVCAR-8 ovarian
786-0 renal = test system: 786-0 renal
SNB-75 CNS = test system: SNB-75 CNS
KM12 colon = test system: KM12 colon
K-562 leukemia = test system: K-562 leukemia
TK-10 renal = test system: TK-10 renal
ACHN renal = test system: ACHN renal
SR leukemia = test system: SR leukemia
OVCAR-4 ovarian = test system: OVCAR-4 ovarian
IGROV1 ovarian = test system: IGROV1 ovarian
EKVX NSCLC = test system: EKVX NSCLC
NCI-H226 lung = test system: NCI-H226 lung
SF-295 CNS = test system: SF-295 CNS
CAKI-1 renal = test system: CAKI-1 renal
A549 NSCLC = test system: A549 NSCLC
MOLT-4 leukemia = test system: MOLT-4 leukemia
OVCAR-3 ovarian = test system: OVCAR-3 ovarian
UO-31 renal = test system: UO-31 renal
U251 CNS = test system: U251 CNS
RPMI-8226 leukemia = test system: RPMI-8226 leukemia
DU-145 prostate = test system: DU-145 prostate
NCI-H460 lung = test system: NCI-H460 lung
HOP-62 NSCLC = test system: HOP-62 NSCLC
SNB-19 CNS = test system: SNB-19 CNS
COLO 205 colon = test system: COLO 205 colon
SK-MEL-5 melanoma = test system: SK-MEL-5 melanoma
M14 melanoma = test system: M14 melanoma
HCT-15 colon = test system: HCT-15 colon
SK-MEL-2 melanoma = test system: SK-MEL-2 melanoma
MCF7 breast = test system: MCF7 breast
MDA-N = test system: MDA-N
T-47D breast = test system: T-47D breast
NCI/ADR-RES ovarian = test system: NCI/ADR-RES ovarian
NCI-H23 lung = test system: NCI-H23 lung
PC-3 prostate = test system: PC-3 prostate
SW-620 colon = test system: SW-620 colon
BT-549 breast = test system: BT-549 breast
HL-60(TB) leukemia = test system: HL-60(TB) leukemia
OVCAR-5 ovarian = test system: OVCAR-5 ovarian
HOP-92 NSCLC = test system: HOP-92 NSCLC
SK-MEL-28 melanoma = test system: SK-MEL-28 melanoma
SK-OV-3 ovarian = test system: SK-OV-3 ovarian
SF-268 CNS = test system: SF-268 CNS
UACC-62 melanoma = test system: UACC-62 melanoma
MDA-MB-435 = test system: MDA-MB-435
HCC-2998 colon = test system: HCC-2998 colon

NNC(=O)COc1nc(-c2cccs2)nc2ccc(I)cc12
TGI (HT29 colon): > 100 µM
TGI (LOX IMVI melanoma): 36.9 µM
GI50 (CCRF-CEM leukemia): 20 µM
TGI (CCRF-CEM leukemia): 88.4 µM
TGI (MALME-3M melanoma): 45.1 µM
TGI (RXF 393 renal): > 100 µM
TGI (SN12C renal): 92.2 µM
TGI (HCT-116 colon): 36.3 µM
TGI (NCI-H522 lung): 45.8 µM
TGI (OVCAR-8 ovarian): > 100 µM
TGI (786-0 renal): 78.8 µM
TGI (SNB-75 CNS): 59 µM
TGI (KM12 colon): 41.5 µM
GI50 (K-562 leukemia): 37 µM
TGI (K-562 leukemia): > 100 µM
TGI (TK-10 renal): 44.8 µM
TGI (ACHN renal): 74.2 µM
TGI (SR leukemia): 55.6 µM
TGI (OVCAR-4 ovarian): 77 µM
TGI (IGROV1 ovarian): 56.3 µM
TGI (EKVX NSCLC): 71 µM
TGI (NCI-H226 lung): 83.9 µM
TGI (SF-295 CNS): 86.2 µM
TGI (CAKI-1 renal): 44.1 µM
TGI (A549 NSCLC): 43.2 µM
TGI (MOLT-4 leukemia): > 100 µM
TGI (OVCAR-3 ovarian): 40.7 µM
TGI (UO-31 renal): 63.5 µM
TGI (U251 CNS): 55.8 µM
GI50 (RPMI-8226 leukemia): 16 µM
TGI (RPMI-8226 leukemia): 39.4 µM
TGI (DU-145 prostate): 50.7 µM
TGI (NCI-H460 lung): 70.4 µM
TGI (HOP-62 NSCLC): 75.6 µM
TGI (SNB-19 CNS): 39.2 µM
TGI (COLO 205 colon): 70.9 µM
TGI (SK-MEL-5 melanoma): 45 µM
TGI (M14 melanoma): 58.3 µM
TGI (HCT-15 colon): 56 µM
TGI (SK-MEL-2 melanoma): 71.3 µM
TGI (MCF7 breast): 88.7 µM
TGI (MDA-N): > 100 µM
TGI (T-47D breast): 21.9 µM
TGI (NCI/ADR-RES ovarian): 91.9 µM
TGI (NCI-H23 lung): 41.2 µM
TGI (PC-3 prostate): > 100 µM
TGI (SW-620 colon): > 100 µM
TGI (BT-549 breast): 38.9 µM
GI50 (HL-60(TB) leukemia): 37.9 µM
TGI (HL-60(TB) leukemia): > 100 µM
TGI (OVCAR-5 ovarian): > 100 µM
TGI (HOP-92 NSCLC): 61.8 µM
TGI (SK-MEL-28 melanoma): 56.2 µM
TGI (SK-OV-3 ovarian): 61 µM
TGI (SF-268 CNS): 70.5 µM
TGI (UACC-62 melanoma): 45.1 µM
TGI (MDA-MB-435): 47 µM
TGI (HCC-2998 colon): 63.9 µM
